The values below come from US12636385B2, “Selective ligands for tau aggregates” (Sentonix, Inc., priority 2018, dated 2026).

As a reminder, the inhibition is the share of the control response that was lost under treatment.

Read-outs that look alike come from different tables or passages of the source. Bounds are passed on as bounds.

The conditions of data set [1]: literature value; cited from earlier work.
Data set [2] can be described thus: Rat brain cassette exposure study. In kind it is in vivo, Sprague Dawley rat. The conditions noted are these: intravenous cassette dosing; for half-life: male, Sprague Dawley, rat, brain, read-out: calculated half-life (t1/2) in rat brain tissue. As to the method:
The in vivo pharmacokinetic characteristics of the example compounds of the invention were compared directly with the known beta-amyloid specific ligand AZD2184 (Johnson, A. E., et al, Journal of Neurochemistry (2009), Vol. 108, pages 1177-1186). Rat brain exposure to three compounds of the invention and AZD2184 was measured by intravenous cassette dosing three test compound: Example Compound 43, Example Compound 47 and Example Compound 48; and AZD2184 (Novandi Chemistry) (concentration of 0.25 μmol/mL each) using the procedure previously described in Johnson, A. E., et al, Journal of Neurochemistry (2009), Vol. 108, pages 1177-1186. 6 male Sprague Dawley rat were used in the experiments, three rats per time point (2 min and 30 min).

Data set [3] addresses T1, MAO-A (Rattus norvegicus, UniProt P21396).
T1 construct: tissue EuroFins Pharma Discovery Service (assay service); host or cells: rat cerebral cortex (own knowledge of the vendor's assay)
T1 sequence (P21396 1-526): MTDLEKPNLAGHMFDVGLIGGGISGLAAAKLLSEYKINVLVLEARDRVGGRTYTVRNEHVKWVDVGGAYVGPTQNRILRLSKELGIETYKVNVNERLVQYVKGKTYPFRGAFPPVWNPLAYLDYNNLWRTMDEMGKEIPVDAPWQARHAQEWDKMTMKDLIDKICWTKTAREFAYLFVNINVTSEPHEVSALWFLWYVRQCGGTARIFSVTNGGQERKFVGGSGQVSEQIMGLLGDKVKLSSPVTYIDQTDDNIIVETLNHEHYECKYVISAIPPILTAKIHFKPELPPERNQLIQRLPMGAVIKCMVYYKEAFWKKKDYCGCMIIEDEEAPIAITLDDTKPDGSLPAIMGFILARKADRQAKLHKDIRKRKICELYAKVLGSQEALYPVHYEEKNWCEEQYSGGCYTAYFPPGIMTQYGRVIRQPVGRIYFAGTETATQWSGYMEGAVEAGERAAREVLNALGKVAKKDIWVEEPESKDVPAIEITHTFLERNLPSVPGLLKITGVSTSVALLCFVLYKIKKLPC
The data set can be described thus: MAO-A binding assay ([^3H]-Ro41-1049). Conditions: tested at 1 μM, rat cerebral cortex; for inhibition at 1 µM: read-out: % inhibition of control specific binding, MAO-A binding assay. As to the method: A monoamine oxidase inhibitor (MAO) binding assay for MAO-A was performed (EuroFins Pharma Discovery Service) for Example Compound 43, Example Compound 48 and the known tau ligand THK-5117. The three compounds were tested at 1 μM. Compound binding was calculated as a % inhibition of the binding of the selective MAO-A inhibitor [^3H]-Ro41-1049 for MAO-A binding.
The MAO-A binding assay was carried our as described in Cesura, A. M., et al, Mol. Phamacol. (1990), Vol 37, pages 358-366, using the materials and conditions described in Table 3.
The results of the MAO-A binding assay are expressed as a percent inhibition of control specific binding obtained in the presence of the test compounds: […]

In another data set the target is T2, MAO-B (Homo sapiens, UniProt P27338).
T2 construct: EuroFins Pharma Discovery Service (assay service)
T2 sequence (P27338 1-520): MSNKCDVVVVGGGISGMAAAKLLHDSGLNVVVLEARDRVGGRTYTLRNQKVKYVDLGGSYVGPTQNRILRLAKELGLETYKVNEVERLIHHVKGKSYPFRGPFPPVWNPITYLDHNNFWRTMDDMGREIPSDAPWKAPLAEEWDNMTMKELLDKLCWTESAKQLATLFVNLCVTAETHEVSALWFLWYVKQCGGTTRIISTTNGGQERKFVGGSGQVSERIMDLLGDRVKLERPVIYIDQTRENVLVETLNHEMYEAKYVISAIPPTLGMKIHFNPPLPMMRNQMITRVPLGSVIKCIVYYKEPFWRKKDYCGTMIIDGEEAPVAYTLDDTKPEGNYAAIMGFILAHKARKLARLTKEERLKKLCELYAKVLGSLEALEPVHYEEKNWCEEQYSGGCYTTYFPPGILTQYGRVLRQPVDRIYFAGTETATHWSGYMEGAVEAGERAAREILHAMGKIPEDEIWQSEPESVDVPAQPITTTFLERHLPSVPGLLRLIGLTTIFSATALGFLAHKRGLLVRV
The data set can be described thus: MAO-B recombinant enzyme assay (D-Luciferin derivative). The conditions noted are these: tested at 1 μM; for inhibition at 1 µM: read-out: % inhibition of control enzyme activity, MAO-B. In kind it is biochemical. As to the method:
(§1) MAO enzyme and uptake assays were also performed (EuroFins Pharma Discovery Service) as described in Weyler, W., et al., J. Biol. Chem. (1985), Vol. 260, pages 13199-13207, using the materials and conditions described in Table 4; and as described in Tsugeno, U., et al., J Biochem. (1995), Vol. 118, pages 974-980, using the materials and conditions described in Table 5, for Example Compound 43, Example Compound 48 and the known tau ligand THK-5117. The three compounds were tested at 1 μM. Compound enzyme/uptake inhibition effect was calculated as a % inhibition of control enzyme activity.
(§2) The results of the enzyme and uptake assays are expressed as a percent inhibition of control specific activity obtained in the presence of the test compounds: […]

In data set [4] the target is T3, MAO-A (Homo sapiens, UniProt P21397).
T3 construct: EuroFins Pharma Discovery Service (assay service)
T3 sequence (P21397 1-527): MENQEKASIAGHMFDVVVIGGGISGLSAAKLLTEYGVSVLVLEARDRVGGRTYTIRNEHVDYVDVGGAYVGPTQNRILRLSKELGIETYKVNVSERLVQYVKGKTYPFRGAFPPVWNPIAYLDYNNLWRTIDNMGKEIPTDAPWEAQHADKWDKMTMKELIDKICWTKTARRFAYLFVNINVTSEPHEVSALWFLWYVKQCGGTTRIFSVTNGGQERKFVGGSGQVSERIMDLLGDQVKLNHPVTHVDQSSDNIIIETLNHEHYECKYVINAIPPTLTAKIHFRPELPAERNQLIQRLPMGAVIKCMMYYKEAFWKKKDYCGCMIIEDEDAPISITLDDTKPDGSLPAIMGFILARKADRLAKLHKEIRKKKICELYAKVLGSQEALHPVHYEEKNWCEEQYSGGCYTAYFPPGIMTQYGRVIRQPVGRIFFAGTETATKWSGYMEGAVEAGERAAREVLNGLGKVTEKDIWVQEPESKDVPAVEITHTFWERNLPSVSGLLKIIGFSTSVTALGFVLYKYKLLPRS
The data set can be described thus: MAO-A enzyme and uptake assay (kynuramine). It is filed as biochemical. The conditions noted are these: tested at 1 μM, human placenta; for inhibition at 1 µM: read-out: % inhibition of control enzyme activity, MAO-A. As to the method: as §1, §2

Another data set has as its target T4, 0N4R Tau fibrils (Homo sapiens, UniProt P10636).
T4 construct: made in house
The data set can be described thus: In vitro competitive binding to 0N4R tau fibrils in the presence of [^3H]-Example Compound 68 (FIG. 1).

For data set [5] the following is noted: cited from earlier work.
Another data set relates to tau plaques. The data set can be described thus: Autoradiography on brain sections from CBD and PSP patients. It is filed as binding, human. Conditions: 3 nM radiotracer, with or without 1 μM unlabeled compound; compared with antibody AT8. As to the method: To examine binding of the example compounds of the present invention to tau plaques in vitro, autoradiography was carried out on brain sections from corticobasal degeneration (CBD) and progressive supranuclear palsy (PSP) patients incubated with [^3H]-Example Compound 72 or [^3H]-Example Compound 48 in the presence or absence of unlabeled Example Compound […] (1 μM) or unlabeled Example Compound 48 (1 μM), respectively. The experiment was performed as previously described in Johnson, A. E., et al, Journal of Neurochemistry (2009), Vol. 108, pages 1177-1186, but using post mortem cortical samples from corticobasal degeneration (CBD) and progressive supranuclear palsy (PSP) patients instead of from Alzheimer's disease patients.
Briefly, brain sections from the cortical samples were incubated for 30 min at 22° C. in 50 mN Tris buffer (pH 7.4) together with 3 nM [^3H]-Example Compound 72 or 3 nM [^3H]-Example Compound 48 in the presence of absence of on unlabeled Example Compound 72 (1 μM) or unlabeled Example Compound 48 (1 μM), respectively. The sections were then washed (3×10 min) in Tris buffer (1° C.) followed by a rinse in deionized water (1° C.) and air-dried at 22° C. in front of a fan. Binding was then measured and analysed as described in Johnson, A. E., et al.
The tau pathology was confirmed on adjacent brain sections by immunohisto-chemistry (IHC) using Phospho-Tau (Ser202, Thr205) Monoclonal Antibody (AT8) as previously as described in Biernat, J., et al, EMBO J. (1992) Vol. 4, pages 1593-1597. AT8 was obtained from Thermo Fisher Scientific (Phospho-PHF-Tau, Thermo Ficher Scientific, Catalog No. MN1020, Stock cone: 0.2 mg/ml, Working solution: 1/100).

Sequence of tau plaques (P10636 561-708 limits assumed): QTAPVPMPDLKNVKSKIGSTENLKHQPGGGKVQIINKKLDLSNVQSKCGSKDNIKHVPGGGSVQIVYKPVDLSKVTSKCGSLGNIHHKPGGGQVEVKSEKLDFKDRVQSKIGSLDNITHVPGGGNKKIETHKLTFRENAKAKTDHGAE
T4 sequence (P10636 1-383 isoform P10636-6): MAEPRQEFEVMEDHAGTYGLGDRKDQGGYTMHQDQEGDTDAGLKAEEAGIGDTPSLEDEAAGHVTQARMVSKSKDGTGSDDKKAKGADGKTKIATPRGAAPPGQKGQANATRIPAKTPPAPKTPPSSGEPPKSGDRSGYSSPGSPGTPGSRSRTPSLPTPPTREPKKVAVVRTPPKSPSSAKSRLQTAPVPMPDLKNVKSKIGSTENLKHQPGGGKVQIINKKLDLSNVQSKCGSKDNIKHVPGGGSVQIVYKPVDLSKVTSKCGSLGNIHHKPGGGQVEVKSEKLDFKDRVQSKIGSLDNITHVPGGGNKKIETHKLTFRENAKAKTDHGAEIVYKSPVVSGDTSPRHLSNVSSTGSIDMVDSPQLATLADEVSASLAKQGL

For `CNc1ccc(-c2nc3ccc(O)cc3s2)cn1` [AZD2184, reference compound], the “t1/2 reported in Table 3 of Johnson, A. E., et al” value in data set [1] is 6.8 min. Moreover, the “calculated half-life (t1/2) in rat brain tissue” value in data set [2] (samples at 2 min and 30 min) is listed as 6.65 min.

Consider `NC(=O)c1ccc2nc(-c3cnc(N4CCC(CCF)CC4)nc3)sc2c1` [Example Compound 43, 2-{2-[4-(2-Fluoroethyl)piperidin-1-yl]pyrimidin-5-yl}-1,3-benzothiazole-6-carboxamide], for which the half-life in data set [2] (samples at 2 min and 30 min) was 379 min. In addition, the inhibition at 1 µM on MAO-A [3], on MAO-B and at MAO-A [4] was less than 25% throughout.

Regarding `OCC1CCN(c2ccc(-c3cc4cc(O)ccc4[nH]3)c(F)n2)CC1` [Example Compound 48, 2-{2-Fluoro-6-[4-(hydroxymethyl)piperidin-1-yl]pyridin-3-yl}-1H-indol-5-ol], the “clearance from normal rat brain tissue” value in data set [2] (2 min and 30 min) is “rapidly cleared”. For the same compound, the half-life in data set [2] (samples at 2 min and 30 min) was 8.21 min. Moreover, on 0N4R Tau fibrils, the “tau binding site shared (competition with [^3H]-Example Compound 68)” value is reported as “share the same binding site”. For the same compound, the inhibition at 1 µM at MAO-A [3], on MAO-B and on MAO-A [4] was less than 25% in each case.

As to `CNc1ccc(-c2ccc3cc(OCC(O)CF)ccc3n2)cc1` (stereo not drawn) [THK-5117, reference compound], the “% inhibition of control specific binding, MAO-A binding assay” value at MAO-A [3] is reported as not above 50%. Also, on MAO-B, the “% inhibition of control enzyme activity, MAO-B” value is recorded as not above 50%. Further, the “% inhibition of control enzyme activity, MAO-A” value on MAO-A [4] is listed as not above 50%.

`CNc1ccc(/C=C/C=C/c2nc3ccc(O)cc3s2)cn1` [^11C-PBB3]: the entries for the “radiochemical purity after exposure to fluorescent light” value in data set [5] (at 1 min after exposure) and in data set [5] (from 10 to 60 min) were 77% and “approximately 50%”, respectively.

Turning to “[^3H] labeled 2-(2-fluoro-6-{4-[hydroxymethyl]piperidin-1-yl}pyridin-3-yl)-1H-indol-5-ol [[^3H]-Example Compound 48]”, in the data set with tau plaques, the “radiotracer binding in CBD brain tissue” value is “displaceable binding in CBD brain tissue that correlates with the tau-specific antibody AT8” and the “radiotracer binding in PSP brain tissue” value is recorded as “displaceable binding in PSP brain tissue that correlates with the tau-specific antibody AT8”.

For the compound “[^3H] labeled (1-{5-[5-(2-Fluoroethoxy)-1H-indol-2-yl]pyrimidin-2-yl}piperidin-4-yl)methanol [[^3H]-Example Compound 72]”, in the data set on tau plaques, the “radiotracer binding in CBD brain tissue” value is reported as “displaceable binding in CBD brain tissue that correlate with tau-specific antibody AT8” and the “radiotracer binding in PSP brain tissue” value is “displaceable binding in PSP brain tissue that correlate with tau-specific antibody AT8”.
